Source: US20090088461A1, “Methods of Treating or Preventing Cardiac Disease Associated With a High Fat Diet” (Synvista Therapeutics, Inc., priority 2007, published 2009)
“And” between values parts separate entries of the source, which are not always exact repeats. Equal entries are not always repeated. One block for each molecule: values may come before it.

Assays:
[1] = target: T1, AGE-BSA previously crosslinked to the collagen (Bos taurus, UniProt P02769); assay: Cross-Link Breaking Assay (sandwich enzyme immunoassay); type: biochemical; details: for Breaking Anti-AGE: anti-AGE antibody; for Breaking Anti-BSA: anti-BSA antibody
T1 construct: Bovine Serum Albumin (Type V), (BSA) Calbiochem; purchased Calbiochem (BSA Type V); Collaborative Biomedical Products (Biocoat collagen plates)
T1 sequence (P02769 25-607): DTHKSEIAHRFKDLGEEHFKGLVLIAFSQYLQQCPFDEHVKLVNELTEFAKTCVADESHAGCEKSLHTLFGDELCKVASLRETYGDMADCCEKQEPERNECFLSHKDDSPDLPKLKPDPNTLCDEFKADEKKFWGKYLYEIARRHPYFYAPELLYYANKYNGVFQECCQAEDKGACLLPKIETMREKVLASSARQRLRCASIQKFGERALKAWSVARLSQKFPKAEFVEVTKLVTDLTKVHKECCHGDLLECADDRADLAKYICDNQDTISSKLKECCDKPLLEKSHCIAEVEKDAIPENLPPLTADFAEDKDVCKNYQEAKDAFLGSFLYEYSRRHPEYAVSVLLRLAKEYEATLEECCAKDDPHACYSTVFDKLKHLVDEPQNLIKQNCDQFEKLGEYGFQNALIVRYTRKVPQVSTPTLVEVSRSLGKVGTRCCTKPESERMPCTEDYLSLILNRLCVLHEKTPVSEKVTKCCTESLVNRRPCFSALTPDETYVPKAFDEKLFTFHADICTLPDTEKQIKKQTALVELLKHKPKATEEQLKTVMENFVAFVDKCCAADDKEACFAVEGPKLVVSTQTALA
T1 sequence (P02454 152-1207 partner limits assumed): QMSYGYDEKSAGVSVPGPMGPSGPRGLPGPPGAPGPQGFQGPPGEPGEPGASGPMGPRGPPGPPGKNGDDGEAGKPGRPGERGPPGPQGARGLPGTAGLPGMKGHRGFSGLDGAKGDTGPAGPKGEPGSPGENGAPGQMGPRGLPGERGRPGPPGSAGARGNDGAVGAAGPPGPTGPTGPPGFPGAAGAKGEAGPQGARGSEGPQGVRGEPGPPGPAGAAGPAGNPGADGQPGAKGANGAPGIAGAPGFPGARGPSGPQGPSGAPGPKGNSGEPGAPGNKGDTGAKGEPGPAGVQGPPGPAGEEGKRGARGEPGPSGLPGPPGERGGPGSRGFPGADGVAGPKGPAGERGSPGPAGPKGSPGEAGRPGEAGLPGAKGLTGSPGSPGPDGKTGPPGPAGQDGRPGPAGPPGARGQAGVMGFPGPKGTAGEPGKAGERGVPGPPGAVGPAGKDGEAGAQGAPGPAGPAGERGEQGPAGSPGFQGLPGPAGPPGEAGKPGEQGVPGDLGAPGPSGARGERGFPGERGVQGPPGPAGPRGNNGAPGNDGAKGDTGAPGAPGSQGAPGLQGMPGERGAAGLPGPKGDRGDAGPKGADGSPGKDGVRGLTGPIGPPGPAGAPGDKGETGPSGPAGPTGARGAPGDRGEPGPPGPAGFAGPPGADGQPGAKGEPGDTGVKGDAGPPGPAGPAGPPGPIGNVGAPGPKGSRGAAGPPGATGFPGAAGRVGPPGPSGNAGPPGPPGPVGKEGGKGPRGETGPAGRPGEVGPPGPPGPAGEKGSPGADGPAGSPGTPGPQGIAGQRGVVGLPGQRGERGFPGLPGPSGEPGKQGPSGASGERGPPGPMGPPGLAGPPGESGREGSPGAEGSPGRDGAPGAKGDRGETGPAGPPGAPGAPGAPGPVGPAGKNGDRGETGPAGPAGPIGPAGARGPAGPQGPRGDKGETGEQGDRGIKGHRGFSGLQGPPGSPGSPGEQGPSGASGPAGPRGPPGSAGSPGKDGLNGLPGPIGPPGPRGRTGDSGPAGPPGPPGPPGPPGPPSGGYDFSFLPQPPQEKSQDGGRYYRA
T1 sequence (P02466 86-1125 partner limits assumed): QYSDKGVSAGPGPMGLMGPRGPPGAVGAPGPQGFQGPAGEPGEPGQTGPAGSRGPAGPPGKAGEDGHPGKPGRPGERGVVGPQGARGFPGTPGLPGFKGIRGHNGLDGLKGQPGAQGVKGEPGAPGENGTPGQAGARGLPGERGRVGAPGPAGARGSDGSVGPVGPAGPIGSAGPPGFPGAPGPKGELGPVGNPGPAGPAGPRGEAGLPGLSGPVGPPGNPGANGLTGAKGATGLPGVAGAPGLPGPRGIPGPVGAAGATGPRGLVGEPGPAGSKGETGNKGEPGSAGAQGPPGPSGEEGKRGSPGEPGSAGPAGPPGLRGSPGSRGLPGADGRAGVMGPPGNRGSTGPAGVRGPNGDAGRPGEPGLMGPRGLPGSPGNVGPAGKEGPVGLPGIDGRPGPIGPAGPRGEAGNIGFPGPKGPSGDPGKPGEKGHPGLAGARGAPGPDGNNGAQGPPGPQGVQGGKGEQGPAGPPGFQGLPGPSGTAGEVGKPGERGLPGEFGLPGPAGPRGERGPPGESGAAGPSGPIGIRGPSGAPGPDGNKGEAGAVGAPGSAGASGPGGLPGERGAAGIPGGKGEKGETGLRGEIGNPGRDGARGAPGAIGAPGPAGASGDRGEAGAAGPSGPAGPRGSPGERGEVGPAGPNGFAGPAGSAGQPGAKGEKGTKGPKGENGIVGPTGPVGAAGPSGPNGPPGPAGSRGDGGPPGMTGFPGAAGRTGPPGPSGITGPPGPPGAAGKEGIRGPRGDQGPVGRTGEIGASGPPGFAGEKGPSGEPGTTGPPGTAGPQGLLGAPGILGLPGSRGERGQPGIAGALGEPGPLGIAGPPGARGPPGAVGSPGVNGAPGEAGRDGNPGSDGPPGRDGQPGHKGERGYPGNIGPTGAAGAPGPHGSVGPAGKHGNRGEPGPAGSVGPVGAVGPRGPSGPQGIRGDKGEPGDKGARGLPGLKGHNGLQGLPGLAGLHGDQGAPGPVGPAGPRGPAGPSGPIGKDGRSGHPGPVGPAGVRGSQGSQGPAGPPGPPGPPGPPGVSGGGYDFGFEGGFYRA
Description: The present invention also involves a novel sandwich enzyme immunoassay used to ascertain the ability of test compounds to “break” or reverse already formed advanced glycosylation endproducts by detecting the breaking of AGE (Advanced glycosylation endproduct) moieties from AGE-crosslinked protein. This assay comprises:
a) incubation of AGE-modified bovine serum albumin (AGE BSA) on collagen-coated wells of microtiter plates for a period of 2-6 hours' at a temperature of 37° C.
b) washing of the wells with PBS-Tween;
c) application of the test compounds to the washed wells of step b;
d) incubation of the test compounds applied to the washed wells for an additional 12-24 hours at a temperature of about 37° C.; and
e) detection of the AGE-breaking using an antibody raised against AGE-ribonuclease or cross-link breaking with an antibody against BSA.
In order to ascertain the ability of the compounds of the instant invention to “break” or reverse already formed advanced glycosylation endproducts, a novel sandwich enzyme immunoassay was developed which detects breaking of AGE (Advanced glycosylation endproduct) moieties from AGE-crosslinked protein. The assay utilizes collagen-coated 96 well microtiter plates that are obtained commercially. […] Following an incubation period of 16 hours (37° C.) cross-link-breaking is detected using an antibody raised against AGE-ribonuclease or with an antibody against BSA. […] Details of the assay are as follows:
1. AGE-BSA stock solutions were prepared as follows. Sodium phosphate buffer (0.4 M) was prepared by dissolving 6 grams of monobasic sodium phosphate in 100 ml of distilled water, 7 grams of dibasic sodium phosphate (0.4 M) in 100 ml of distilled water and adjusting the pH of the dibasic solution to 7.4 with the monobasic solution. Sodium azide (0.02 grams) was added per 100 ml volume to inhibit bacterial growth. The BSA solution was prepared as follows: 400 mg of Type V BSA (bovine serum albumin) was added for each ml of sodium phosphate buffer (above). A 400 mM glucose solution was prepared by dissolving 7.2 grams of dextrose in 100 ml of sodium phosphate buffer (above). The BSA and glucose solutions were mixed 1:1 and incubated at 37° C. for 12 weeks. The pH of the incubation mixture was monitored weekly and adjusted to pH 7.4 if necessary. After 12 weeks, the AGE-BSA solution was dialyzed against PBS for 48 hours with four buffer changes, each at a 1:500 ratio of solution to dialysis buffer. Protein concentration was determined by the micro-Lowry method. The AGE-BSA stock solution was aliquoted and stored at −20° C.
2. Working solutions for crosslinking and breaking studies were prepared as follows. Test compounds were dissolved in PBS and the pH was adjusted to pH 7.4 if necessary. AGE-BSA stock solution was diluted in PBS to measure maximum crosslinking and in the inhibitor solution for testing inhibitory activity of compounds. The concentration of AGE-BSA necessary to achieve the optimum sensitivity was determined by initial titration of each lot of AGE-BSA.
3. Wash buffer (“PBS-Tween”) was, prepared as follows. PBS was prepared by dissolving the following salts in one liter of distilled water: NaCl, 8 grams; KCl, 0.2 gram, KH2PO4. […] Tween-20 was added to a final concentration of 0.05% (vol/vol).
4. Substrates for detection of secondary antibody binding were prepared by diluting the HRP substrate buffer 1:10 in distilled water and mixing with ABTS chromogen 1:50 just prior to use.
1. Biocoat plates were blocked with 300 μl of “Superbloc”. Plates were blocked for one hour at room temperature and were washed with PBS-Tween three times with the Dynatech platewasher before addition of test reagents.
2. Each experiment was set up in the following manner. The first three wells of the Biocoat plate were used for the reagent blank. Fifty microliters of solutions AGE-BSA were added to test wells in triplicate and only PBS in blank wells.

[2] = target: cross-linking of glycated bovine serum albumin (AGE-BSA) to the rat tail tendon collagen-coated 96-well plate (Bos taurus, UniProt P02769); assay: Cross-Linking Inhibition Assay; details: for inhibition at 10000 µM: read-out: Relative Cross-link Inhibition (at 10 mM)
cross-linking of glycated bovine serum albumin (AGE-BSA) to the rat tail tendon collagen-coated 96-well plate, sequence (P02769 25-607): as the sequence (P02769 25-607) above
Description: The following method was used to evaluate the ability of the compounds of the present invention to inhibit the cross-linking of glycated bovine serum albumin (AGE-BSA) to the rat tail tendon collagen-coated 96-well plate.
The blocking solution was removed from the wells by, washing the plate twice with PBS-'Tween 20 solution (0.05% Tween 20) using a NUNq-multiprobe or Dynatech ELISA-plate washer. Cross-linking of AGE-BSA (1 to 10 mg per well depending on the batch of AGE-BSA) to rat tail tendon collagen coated plate was performed with and without the testing ‘compound dissolved in PBS buffer at pH 7.4 at the desired concentrations by the, addition of 50 μl each of the AGE-BSA diluted in PBS or in the solution of test compound at 37° C. for 4 hours.
Unbrowned BSA in PBS buffer with or without testing compound were added to the separate wells as the blanks. The un-cross-linked AGE-BSA was then removed by washing the wells three times with PBS-Tween buffer. The amount of AGE-BSA cross-linked to the tail tendon collagen-coated plate was then quantitated using a polyclonal antibody raised against AGE-RNase. After a one-hour incubation period, AGE antibody was removed by washing 4 times with PBS-Tween.
The bound AGE antibody was then detected with the addition of horseradish peroxidase-conjugated secondary antibody—goat anti-rabbit immunoglobulin and incubation for 30 minutes. […] The reaction was allowed for an additional 15 minutes and the absorbance was read at 410 nm in a Dynatech plate reader.

Molecule: Cc1sc[n+](CC(=O)c2ccccc2)c1C.[Br-] [3-(2-phenyl-2-oxoethyl)-4,5-dimethylthiazolium bromide]
- Breaking Anti-AGE ([1]; at 30 mM): 56%/ND (30)
- inhibition at 10000 µM [2]: 37%

Molecule: Cc1c(CCO)sc[n+]1CC(=O)c1ccc2c(c1)OCCO2.[Br-] [3 (2-(1′,4′-benzodioxan-6-yl)-2-oxoethyl]-4-methyl-5-(2′-hydroxyethyl)-thiazolium bromide]
- Breaking Anti-AGE ([1]; at 3 mM): 11%
- Breaking Anti-BSA ([1]; at 3 mM): 21%
- Relative Cross-link Inhibition (at 10 mM) ([2]; at 10 mM): 13%

Molecule: CCCCN(CCCC)C(=O)C[n+]1csc(CCO)c1C.[Br-] [3-(2-Dibutylamino-2-oxoethyl]-4-methyl-5-(2′-hydroxyethyl)-thiazolium bromide]
- Breaking Anti-AGE ([1]; at 10 mM): 25%
- Breaking Anti-BSA ([1]; at 10 mM): 38%
- inhibition at 10000 µM [2]: 0.8%

Molecule: Cc1c(CCOCc2c(Cl)cccc2Cl)sc[n+]1N.Cc1cc(C)c(S(=O)(=O)[O-])c(C)c1 [3-amino-4-methyl-5-(2(2′,6′-dichlorobenzyloxy)ethyl]-thiazolium mesitylenesulfonate]
- Breaking Anti-AGE ([1]; at 10 mM): 31%
- Breaking Anti-BSA ([1]; at 10 mM): 54%
- Relative Cross-link Inhibition ([2]; 3 mM): 26.5% (3 mm)

- Breaking Anti-AGE ([1]; at 10 mM): 4% and 14%
- Breaking Anti-BSA ([1]; at 10 mM): 19% and 25%
Molecule: COc1cccc(C[n+]2csc(CCO)c2C)c1.[Cl-] [3-(3′-methoxybenzyl)-4-methyl-5-(2′-hydroxyethyl)-thiazolium chloride]

Molecule: CCCCCc1ccc(C(=O)C[n+]2csc(CCO)c2C)cc1.[Br-] [3-(2-(4′-n-pentylphenyl)-2-oxoethyl]-4-methyl-5-(2′-hydroxyethyl)-thiazolinium]
- Relative Cross-link Inhibition ([2]; 3 mM): 52% @ 3 mM

- Breaking Anti-AGE ([1]; at 10 mM): 56%
- Breaking Anti-BSA ([1]; at 10 mM): 38%
- IC50 [2]: 4500 µM
Molecule: C[n+]1ccn(CC(=O)c2cc(C(C)(C)C)c(O)c(C(C)(C)C)c2)c1 [1-methyl-3-(2-(3′,5′-di-tert-butyl-4′-hydroxyphenyl)-2-oxoethyl]-imidazolium bromide]

Molecule: Cc1cc(C)c(S(=O)(=O)[O-])c(C)c1.Nc1sc(-c2ccc3c(c2)OCCCO3)c[n+]1N [2,3-Diamino-5-(3′,4′-trimethylenedioxyphenyl)thiazolium mesitylene sulfonate]
- Breaking Anti-AGE ([1]; at 1 mM): 13%
- Breaking Anti-BSA ([1]; at 1 mM): 42%

Molecule: Cc1csc[n+]1CC(=O)c1cc(C(C)(C)C)c(O)c(C(C)(C)C)c1.[Br-] [3-[2-(3′,5′-di-tert-butyl-4′-hydroxyphenyl)-2-oxoethyl]-4-methyl-thiazolium bromide]
- Breaking Anti-AGE ([1]; at 0.3 mM): 14%
- Breaking Anti-BSA ([1]; at 0.3 mM): 2%
- Relative Cross-link Inhibition ([2]; 0.3 mM): 24% @ 0.3 mM

Molecule: Cc1sc[n+](CC(N)=O)c1C.[Br-] [3-(2-amino-2-oxoethyl)-4,5-dimethyl-thiazolium bromide]
- Breaking Anti-AGE ([1]; at 30 mM): 61%
- Breaking Anti-BSA ([1]; at 30 mM): 16%
- IC50 [2]: 9900 µM

Molecule: Cc1csc[n+]1CC(N)=O.[Br-] [3-(2-amino-2-oxoethyl)-4-methyl-thiazolium bromide]
- Breaking Anti-AGE ([1]; at 30 mM): 89%
- Breaking Anti-BSA ([1]; at 30 mM): 44%
- IC50 [2]: 700 µM

Molecule: CCOC(=O)c1ccc(NC(=O)C[n+]2csc(CCO)c2C)cc1.[Br-] [3-(2-4′-carbethoxyanilino)-2-oxoethyl]-4-methyl-5-(2′-hydroxyethyl)-thiazolium bromide]
- Breaking Anti-AGE ([1]; at 10 mM): 48%
- Breaking Anti-BSA ([1]; at 10 mM): 57%
- Relative Cross-link Inhibition ([2]; 1 mM): 8.8% (1 mm)

- Breaking Anti-AGE ([1]; at 30 mM): 65%
- Breaking Anti-BSA ([1]; at 30 mM): 61%
Molecule: Cc1c(CCO)sc[n+]1Cc1ccccc1.[Cl-] [3-benzyl-5-(2-hydroxyethyl)-4-methyl thiazolium chloride]

Molecule: Cc1c(CCO)sc[n+]1Cc1ccccc1[N+](=O)[O-].[Br-] [3-(2′-nitrobenzyl)-4-methyl-5-(2′-hydroxyethyl)-thiazolium bromide]
- Breaking Anti-AGE ([1]; at 10 mM): 11%
- Breaking Anti-BSA ([1]; at 10 mM): 13%

- inhibition at 10000 µM [2]: 38%
Molecule: COC(=O)C[n+]1csc(CCO)c1C [3-(2-methoxy-2-oxoethyl)-4-methyl-5-(2-hydroxyethyl)-thiazolium bromide]

- IC50 [2]: 530 µM
Molecule: NC(=O)C[n+]1ccsc1 [3-(2-amino-2-oxoethyl)-thiazolium bromide]

- IC50 [2]: 160 µM
Molecule: Cc1sc[n+](CC(=O)c2cc(C(C)(C)C)c(O)c(C(C)(C)C)c2)c1C [3-(2-(3′,5′-di-tert-butyl-4′-hydroxypheny].)-2-oxoethyl]-4,5-dimethyl-thiazolium bromide]

- Breaking Anti-AGE ([1]; at 10 mM): 6%
- Breaking Anti-BSA ([1]; at 10 mM): 27%
Molecule: Cc1c(CCO)sc[n+]1Cc1c(Cl)cccc1Cl.[Cl-] [3-(2′,6′-dichlorobenzyl)-4-methyl-5-(2′-15 hydroxyethyl)-thiazolium chloride]

- Breaking Anti-AGE ([1]; at 0.3 mM): 32%
- Breaking Anti-BSA ([1]; at 0.3 mM): 50%
- IC50 (mM) Anti-BSA ([1]; detection with anti-BSA antibody): ND/0/60%
Molecule: C=Cc1sc[n+](CC(=O)c2cc(C(C)(C)C)c(O)c(C(C)(C)C)c2)c1C [3-(2-(3′,5′-tert-butyl-4′-hydroxyphenyl)-2-oxoethyl)-4-methyl-5-vinyl-thiazolium bromide]

Molecule: COc1ccc(C(=O)C[n+]2c(N)sc3cc(N)ccc32)cc1.[Br-] [2,6-diamino-3 (2-(4′-methoxyphenyl)-2-oxoethyl]benzothiazolium bromide]
- Breaking Anti-AGE ([1]; at 10 mM): 29%
- Breaking Anti-BSA ([1]; at 10 mM): 35%

- IC50 [2]: 2950 µM
Molecule: Cc1c(CCO)sc[n+]1CC(=O)c1ccc(Br)cc1 [3-(2-(41-bromophenyl]-2-oxoethyl)-4-methyl-5-(2-hydroxyethyl)thiazolium bromide]

- Breaking Anti-AGE ([1]; at 30 mM): 87%
- Breaking Anti-BSA ([1]; at 30 mM): 54%
Molecule: Nc1sc2ccccc2[n+]1N [2,3-diaminio-benzothiazolium mesitylenesulfonate]

Molecule: Nc1ccc2c(c1)sc(N)[n+]2CC(=O)c1ccc(F)cc1.[Br-] [2,6-diamino-3 (2-(4′-fluorophenyl-2-oxoethyl]benzothiazolium bromide]
- Breaking Anti-AGE ([1]; at 10 mM): 24%
- Breaking Anti-BSA ([1]; at 10 mM): 40%

Molecule: O=C(C[n+]1ccsc1)c1ccc(Br)cc1.[Br-] [3-(2-(4^1-bromophenyl]-2-oxoethyl)-thiazolium bromide]
- Breaking Anti-AGE ([1]; at 30 mM): 76%
- Breaking Anti-BSA ([1]; at 30 mM): 25%

Molecule: CC(C)(C)C(=O)C[n+]1ccsc1.[Br-] [3-(2-tert-butyl-2-oxoethyl)-thiazolium bromide]
- Breaking Anti-AGE ([1]; at 10 mM): 28%
- Breaking Anti-BSA ([1]; at 10 mM): 37%

- IC50 [2]: 12600 µM
Molecule: Cc1c[n+](CC(=O)c2ccccc2)cs1 [3-(2-phenyl-2-oxoethyl)-5-methyl-thiazolium bromide]

- Breaking Anti-AGE ([1]; at 10 mM): 22%
- Breaking Anti-BSA ([1]; at 10 mM): 44%
Molecule: 3-(2-(3′-methoxyphenyl]-2-oxoethyl)-thiazolium bromide

Molecule: CC(=O)C[n+]1ccsc1.[Cl-] [3-(2-methyl-2-oxoethyl)thiazolium chloride]
- IC50 ([1]; IC50 (mM) Anti-AGE, detection with anti-AGE antibody): 0.83 mM
- IC50 ([1]; IC50 (mM) Anti-BSA, detection with anti-BSA antibody): 0.75 mM
- Breaking Anti-AGE ([1]; concentration not given): 56%
- Breaking Anti-BSA ([1]; concentration not given): 93%

Molecule: Nc1ccc2c(c1)sc(N)[n+]2CC(=O)c1ccc(Br)cc1.[Br-] [2,6-diamino-3 (2-(4′-bromophenyl)-2-oxoethyl]benzothiazolium bromide]
- Breaking Anti-AGE ([1]; at 10 mM): 27%
- Breaking Anti-BSA ([1]; at 10 mM): 44%

Molecule: O=C(C[n+]1ccsc1)c1ccc2c(c1)OCCCO2.[Br-] [3-(2-(3′,4′-trimethylenedioxyphenyl)-2-oxoethyl]-thiazolium bromide]
- Breaking Anti-AGE ([1]; at 10 mM): 17%
- Breaking Anti-BSA ([1]; at 10 mM): 18%
